# Test: in vitro
# Details: human, hela cells, % viability
row,SMILES,"viability at 28.5 h, 10 µM [%]"
1,CC(=O)NCc1cccc(-c2cc(C(=O)NCCc3cccc(OC(F)(F)F)c3)cnc2-c2ccc(Cl)cc2)c1 [CBK164414],84.7
2,CC(=O)NCc1cccc(-c2cc(C(=O)NCC3CN(Cc4ccccc4)CCO3)cnc2-c2ccc(Cl)cc2)c1 (centres unmarked) [CBK164416T],88.5
3,Cc1ccc(CNC(=O)Cn2cc(-c3ccc(CN4CCC(C)CC4)cc3)nn2)cc1 [CBK164706],87.1
4,CC1CCN(Cc2ccc(-c3cn(CC(=O)NCc4ccc(Br)cc4)nn3)cc2)CC1 [CBK164709],93
5,CC(C)CCNCc1ccc(-c2cn(CC(=O)NCCc3ccccc3)nn2)cc1 [CBK164740],95.9
6,Cc1nc2c(C(=O)NC3CCOCC3)cnn2c(C)c1Cc1cccc(Br)c1 [CBK165011],92.3
7,Cn1cnc(S(=O)(=O)N(c2ccc(C(C)(C)C)cc2)C2CCNCC2)c1 [CBK165046T],87.5
8,CC(=O)Nc1ccc(S(=O)(=O)N(c2ccc(C(C)(C)C)cc2)C2CCNCC2)cc1 [CBK165062T],90.4
9,Cc1cc(S(=O)(=O)N(c2ccc(C(C)(C)C)cc2)C2CCNCC2)c(C)s1 [CBK165075T],105
10,O=S(=O)(CC(F)(F)F)N(c1ccccc1)C1CCNCC1 [CBK165093T],92.6
11,O=C1CCCN1c1ccc(S(=O)(=O)N(c2ccccc2)C2CCNCC2)cc1 [CBK165122T],109
12,CC(C)CCN(Cc1ccc(-c2ccc(S(C)(=O)=O)cc2)nc1)C1CCN(C(=O)OC(C)(C)C)CC1 [CBK165138],83.4
13,COCCNC(=O)c1cnn2c(C)c(Cc3ccccc3C(F)(F)F)c(C)nc12 [CBK165210],95.7
14,CC(C)COC(=O)N1CCC(N(C)Cc2ccc(-c3ccc(S(C)(=O)=O)cc3)nc2)CC1 [CBK165259T],90.4
15,CC(C)OC(=O)N1CCC(N(C)Cc2ccc(-c3ccc(S(C)(=O)=O)cc3)nc2)CC1 [CBK165261T],121
16,COc1ccc(S(=O)(=O)N(Cc2cc(F)cc(F)c2)C2CCNCC2)cc1 [CBK165292T],89.8
17,CC1CCN(Cc2ccc(-c3cn(CC(=O)NCc4ccc(Br)cc4F)nn3)cc2)CC1 [CBK165756C],91.1
18,CC(C)(C)OC(=O)N1CCC(N2CCc3cc(-c4ccc(S(C)(=O)=O)cc4)ccc3C2)CC1 [CBK165796],82.7
19,Cc1cccc(C(=O)N2CCC(N(C)Cc3ccc(-c4ccc(S(C)(=O)=O)cc4)nc3)CC2)n1 [CBK165937T],81.5

row,SMILES,"viability at 28.5 h, 10 µM [%]"
1,CN(Cc1ccc(-c2ccc(S(C)(=O)=O)cc2)nc1)C1CCN(C(=O)c2cc(Cl)ccc2Cl)CC1 [CBK165943T],84.5
2,CC1CCN(Cc2ccc(-c3cn(CC(=O)NCc4ccc(Br)cc4)cn3)cc2)CC1 [CBK165969],104
3,CC(C)CCNCc1ccc(-c2cn(CC(=O)NCc3ccc(C(F)(F)F)cc3)cn2)cc1 [CBK165976],91.7
4,N#Cc1ccc(-c2cncc(NC3CCC(O)CC3)n2)cc1 (centres unmarked) [CBK166007T],88.2
5,COc1ccc2c(c1)OC1(CCN(C(=O)c3cc(OC)c(C)c(OC)c3)CC1)NC2=O [CBK166244],82.6
6,COc1ccc(C(=O)N2CCC3(CC2)NC(=O)c2ccc(C(F)(F)F)cc2O3)cc1OC [CBK166265],102
7,COc1ccc2c(c1)C(=O)NC1(CCN(C(=O)c3ccc(OC)c(C)c3)CC1)O2 [CBK166291],106
8,CCCN(C)Cc1ccc(-c2cn(CC(=O)NCc3ccc4c(c3)OC(F)(F)O4)nn2)cc1 [CBK166361],101
9,CCCN(C)Cc1ccc(-c2cn(CC(=O)NCc3ccc(OCC(F)F)cc3)nn2)cc1 [CBK166365],106
10,COc1ccc(S(=O)(=O)N2CCC3(CC2)CC(=O)c2ccc(C)cc2O3)cc1OC [CBK166515],96.8
11,COc1cc(NC(=O)N2CCC3(CC2)CC(=O)c2ccc(C)cc2O3)cc(OC)c1 [CBK166521],90.3
12,CC(C)(C)OC(=O)N1CCC(N(CCC(F)(F)F)Cc2ccc(-c3ccc(S(C)(=O)=O)cc3)nc2)CC1 [CBK167262],81
13,Cc1cc(N2CCC(O)CC2)nc(N)n1 [CBK167265],109
14,Cc1cc(N2CCC(N(C)C)CC2)nc(N)n1 [CBK167267],106
15,Cc1nc2c(C(=O)NCCOCCO)cnn2c(C)c1Cc1cccc(OC(F)(F)F)c1 [CBK167454],114
16,Cc1nc2c(C(=O)NCC3OCCO3)cnn2c(C)c1Cc1ccc(Br)cc1 [CBK167467],99.8
17,CC(C)(O)CCN(Cc1ccc(-c2ccc(S(C)(=O)=O)cc2)nc1)C1CCN(C(=O)OC(C)(C)C)CC1 [CBK167517],101
18,CCCNCc1ccc(-c2nnn(CC(=O)NCc3ccc(C4CCC4)cc3)n2)cc1 [CBK167525C],105
19,CN(C)CCNC(=O)c1ccc(-c2cnc(OCC3CCN(C(=O)OC(C)(C)C)CC3)nc2)cc1 [CBK167544],89.8

row,SMILES,"viability at 28.5 h, 10 µM [%]"
1,C[C@H](NC(=O)Cn1cc(-c2ccc(CN3CCCC3)cc2)nn1)c1ccc(Br)cc1 [CBK167692],86
2,COc1cc(OC)cc(C(=O)N2CCC3(CC2)CC(=O)c2cc(C)ccc2O3)c1 [CBK167804],94.6
3,Cc1cc(N2CCC(N3CCN(C)CC3)CC2)nc(N)n1 [CBK167964],94.3
4,CCOc1cc(OCC)cc(C(=O)N2CCC3(CC2)CC(=O)c2cc(CC)ccc2O3)c1 [CBK168009],101
5,CCOc1cc(OCC)cc(C(=O)N2CCC3(CC2)CC(=O)c2cc(OCC)ccc2O3)c1 [CBK168013],87.2
6,CCOc1cc(OCC)cc(C(=O)N2CCC3(CC2)CC(=O)c2ccc(OCC)c(C)c2O3)c1 [CBK168015],112
7,CCOc1cc(OCC)cc(C(=O)N2CCC3(CC2)CC(=O)c2ccc(N)cc2O3)c1 [CBK168018],111
8,CCc1ccc2c(c1)C(=O)CC1(CCN(C(=O)c3cc(OC)c(C)c(OC)c3)CC1)O2 [CBK168098],112
9,COc1cc(C(=O)N2CCCC3(CC(=O)c4ccc(C)cc4O3)C2)cc(OC)c1C (centres unmarked) [CBK168239],87.2
10,COc1cc(C(=O)N2CCC3(CC2)CC(=O)c2cc(C)ccc2O3)cc(-c2ccc(OC)c(OC)c2)c1 [CBK168271],88.9
11,COc1cc(C(=O)N2CCC3(CC2)CC(=O)c2ccc(C)cc2O3)cc(-c2ccc(OC)c(OC)c2)c1 [CBK168282],89.5
12,NC1CCN(C(=O)c2cn(C3CC3)c3cc(Cl)c(F)cc3c2=O)CC1 [CBK168626],93.3
13,O/N=C/c1c[nH]c2ccccc12 [CBK168630],102
14,CCOc1cc(OCC)cc(C(=O)N2CCC3(CC2)CC(=O)c2cc(OCCN(C)C)ccc2O3)c1 [CBK169003T],89.3
15,COc1cc(OC)cc(C(=O)N2CCC3(CC2)CC(=O)c2ccc(OCCN(C)C)cc2O3)c1 [CBK169008T],92.8
16,COc1cc(C(=O)N2CCC3(CC2)CC(=O)c2ccc(-c4ccccc4)cc2O3)cc(OC)c1C [CBK169037],89.9
17,COc1cc(C(=O)N2CCC3(CC2)CC(=O)c2cc(CN4CCOCC4)ccc2O3)cc(OC)c1C [CBK169182],109
18,COc1cc(C(=O)N2CCC3(CC2)CC(=O)c2cc(CN4CCN(C)CC4)ccc2O3)cc(OC)c1C [CBK169185],94.6

# Reference: paper PMC12040169 (PLOS Biology, 2025)
